In paper PMC9739398, “Substrate Specificity of GSDA Revealed by Cocrystal Structures and Binding Studies” (International Journal of Molecular Sciences, 2022):

Legend:
AtGSDA [1] = biological target: T1, AtGSDA (Arabidopsis thaliana, UniProt Q94BU8); assay: crystal structure; thermal shift; assay type: binding; conditions: active site, described as competitive inhibitor
T1 construct: gene GSDA; SF form, Ser29-Tyr185, N-terminal 6xHis tag (pET-28a), recombinant, homodimer, zinc enzyme; full-length in pET-21b also made
T1 sequence (Q94BU8 29-185): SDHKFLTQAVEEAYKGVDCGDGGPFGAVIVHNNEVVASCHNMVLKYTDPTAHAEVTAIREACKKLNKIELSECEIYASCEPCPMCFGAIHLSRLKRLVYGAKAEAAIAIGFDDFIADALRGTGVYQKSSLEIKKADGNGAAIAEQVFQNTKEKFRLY

AtGSDA [2] = biological target: T2, AtGSDA (Arabidopsis thaliana, UniProt Q94BU8, Y185E); assay: thermal shift; assay type: binding
T2 construct: gene GSDA; SF form, Ser29-Tyr185, N-terminal 6xHis tag (pET-28a), recombinant, homodimer, zinc enzyme; full-length in pET-21b also made
T2 sequence (Q94BU8 29-185 Y185E): as the sequence (Q94BU8 29-185) above, with Y157E counted along it

AtGSDA [3] = biological target: T3, AtGSDA (Arabidopsis thaliana, UniProt Q94BU8, Y185K); assay: thermal shift; assay type: binding
T3 construct: gene GSDA; SF form, Ser29-Tyr185, N-terminal 6xHis tag (pET-28a), recombinant, homodimer, zinc enzyme; full-length in pET-21b also made
T3 sequence (Q94BU8 29-185 Y185K): as the sequence (Q94BU8 29-185) above, with Y157K counted along it

AtGSDA [4] = biological target: T4, AtGSDA (Arabidopsis thaliana, UniProt Q94BU8, Y185F); assay: crystal structure; thermal shift; assay type: binding; conditions: one ligand per dimer, substrate form
T4 construct: gene GSDA; SF form, Ser29-Tyr185, N-terminal 6xHis tag (pET-28a), recombinant, homodimer, zinc enzyme; full-length in pET-21b also made
T4 sequence (Q94BU8 29-185 Y185F): as the sequence (Q94BU8 29-185) above, with Y157F counted along it

AtGSDA [5] = biological target: T5, AtGSDA (Arabidopsis thaliana, UniProt Q94BU8, E82Q); assay: thermal shift; assay type: binding; conditions: catalytically impaired
T5 construct: gene GSDA; SF form, Ser29-Tyr185, N-terminal 6xHis tag (pET-28a), recombinant, homodimer, zinc enzyme; full-length in pET-21b also made
T5 sequence (Q94BU8 29-185 E82Q): as the sequence (Q94BU8 29-185) above, with E54Q counted along it

AtGSDA [6] = biological target: T1, AtGSDA; assay: thermal shift; deamination by mass spectrometry; assay type: biochemical; conditions: weak substrate; crystal soak reached product stage
AtGSDA [7] = biological target: T1, AtGSDA; assay: thermal shift (dye); crystal structure (product formed from soaked guanosine); assay type: binding; conditions: printed as nearly 2; zinc enzyme; active site
AtGSDA [8] = biological target: T4, AtGSDA; assay: thermal shift; assay type: binding
GDA = biological target: T6, GDA (Escherichia coli, UniProt P76641); assay: deamination by mass spectrometry; thermal shift; assay type: biochemical; conditions: enzyme:substrate 1:100; 50 mM sodium bicarbonate, neutral
T6 construct: gene guaD; recombinant, purified as in a cited protocol
T6 sequence (P76641 1-439): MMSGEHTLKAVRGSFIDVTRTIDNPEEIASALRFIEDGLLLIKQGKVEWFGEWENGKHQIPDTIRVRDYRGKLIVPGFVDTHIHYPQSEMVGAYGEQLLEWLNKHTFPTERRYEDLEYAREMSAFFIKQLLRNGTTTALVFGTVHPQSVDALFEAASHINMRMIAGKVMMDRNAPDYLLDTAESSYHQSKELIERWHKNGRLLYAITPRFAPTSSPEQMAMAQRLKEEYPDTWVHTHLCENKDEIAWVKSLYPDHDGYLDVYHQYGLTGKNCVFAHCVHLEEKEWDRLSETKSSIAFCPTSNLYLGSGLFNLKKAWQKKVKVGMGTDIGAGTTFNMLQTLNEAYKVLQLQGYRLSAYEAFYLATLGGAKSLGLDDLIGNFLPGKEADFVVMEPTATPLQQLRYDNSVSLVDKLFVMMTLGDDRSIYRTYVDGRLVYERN

AtGSDA [9] = biological target: T1, AtGSDA; assay: thermal shift (dye); deamination by mass spectrometry; assay type: biochemical; conditions: printed as nearly 2; turned over to 2'-O-methylxanthosine

SMILES: Nc1ncnc2c1ncn2[C@@H]1O[C@H](CO)[C@@H](O)[C@H]1O [compound 3, adenosine]
- ΔTm (AtGSDA [1]): The ligand adenosine (Ado) maintained its interactions with Ala81 and Asn69 via N6

SMILES: Nc1nc2c(ncn2[C@@H]2O[C@H](CO)[C@@H](O)[C@H]2O)c(=O)[nH]1 [guanosine]
- ΔTm (AtGSDA [2]): WT and Y185F/E showed similar binding affinities toward the ligands
- ΔTm (AtGSDA [3]): the Y185K and E82Q mutants showed differentially reduced affinities
- ΔTm (AtGSDA [4]): the Y185F-Gua structure indicated that only one Gua molecule was bound
- ΔTm (AtGSDA [5]): the Y185K and E82Q mutants showed differentially reduced affinities

SMILES: CNc1nc2c(ncn2[C@@H]2O[C@H](CO)[C@@H](O)[C@H]2O)c(=O)[nH]1 [compound 2, N^2-methylguanosine]
- ΔTm (AtGSDA [6]): the inhibitors Ado/isoG or the weak substrate N^2-mG normally lacked one or two functional groups

SMILES: O=c1[nH]c(=O)c2ncn([C@@H]3O[C@H](CO)[C@@H](O)[C@H]3O)c2[nH]1 [xanthosine]
- ΔTm (AtGSDA [2]): WT and Y185F/E showed similar binding affinities toward the ligands
- ΔTm (AtGSDA [7]): ~ 2 °C
- ΔTm (AtGSDA [8]): WT and Y185F/E showed similar binding affinities toward the ligands

SMILES: Nc1nc2[nH]cnc2c(=O)[nH]1 [guanine]
- ΔTm (GDA): GDA showed excellent deamination capability by converting almost all of the guanine substrate

SMILES: O=c1[nH]cnc2c1ncn2[C@@H]1O[C@H](CO)[C@@H](O)[C@H]1O [compound 4, inosine]
- ΔTm (AtGSDA [1]): The binding position was almost unchanged when compared to Gua bound by AtGSDA

SMILES: Nc1nc(=O)[nH]c2c1ncn2[C@@H]1O[C@H](CO)[C@@H](O)[C@H]1O [compound 5, isoguanosine]
- ΔTm (AtGSDA [1]; 2-keto group ligates zinc): its binding mode was similar to that of Xan (Figure 3c, PDB 7DM6)

SMILES: CO[C@@H]1[C@H](O)[C@@H](CO)O[C@H]1n1cnc2c(=O)[nH]c(N)nc21 [compound 1, 2′-O-methylguanosine]
- ΔTm (AtGSDA [9]): ~ 2 °C
